Read-outs that look alike come from different tables or passages of the source.
How the values were obtained:
[1] = Human microsomal stability (Eh); format: in vitro ADME; conditions: hepatic extraction ratio; 0.5 mg/mL microsomal protein, 1 μM, NADPH; liver blood flow 20.7 mL/min/kg
Procedure: The stock solutions of test article and positive control were prepared at a concentration of 10 mM using DMSO as diluents. All stock solutions were then diluted to working concentrations at 0.25 mM with 70% acetonitrile. The cofactor used in this study was NADPH regenerating system, that was composed of 6.5 mM NADP, 16.5 mM G-6-P, 3 U/mL G-6-P D. The quench reagent was consisted of acetonitrile containing tolbutamide and propanolol (serve as internal standard). Incubation mixtures containing 0.5 mg/mL liver microsomal protein and […] test article/positive control in 100 mM potassium phosphate buffer.
The 0-minute samples were prepared by addition of an 80 μL aliquot of each incubation mixture to 300 μL quench reagent to precipitate proteins. The samples were vortexed, and then a 20 μL aliquot of the NADPH regenerating system was added in. The reaction was initiated by addition of 80 μL of the NADPH regenerating system to 320 μL of each incubation mixture. The final incubation conditions achieved in 400 μL are: 0.5 mg/mL microsomal protein, 1 μM test article/positive control, 1.3 mM NADP, 3.3 mM glucose 6 phosphate, 0.6 U/mL glucose 6 phosphate dehydrogenase. The mixtures were incubated in a 37° C. water bath with gentle shaking. A 100 μL aliquot of each mixture was removed at 10, 30, 90 minutes to a clean 96-well plate which contains 300 μL quench reagent to precipitate proteins, and centrifuged (4000×g, 10 min). 80 μL of supernatant are taken into 96-well assay plates pre-added with 160 μL ultrapure water, and then analyzed by LC-MS/MS. Hepatic extraction ratio (Eh) values were calculated from measured in vitro clearance assuming a human liver blood flow of 20.7 mL/min/kg. Eh values of <0.3 are indicative of compounds with favorable metabolic stability.

NLRP3 inflammasome [2] = biological target: T1, NLRP3 inflammasome (Homo sapiens, UniProt Q96P20); experiment: NLRP3 inflammasome activation assay in PBMCs (LPS priming, nigericin), IL-1β by ELISA; format: cell-based; design: Human peripheral blood mononuclear cells (PBMCs); host or cells: primary human PBMCs from healthy donors; conditions: LPS, nigericin, read-out: PBMC IL-1β IC50
Procedure: (§1) Some of the following assays were used to determine the inhibitory activity of the compounds on the NLRP3 inflammasome using a common inflammasome activation stimuli-nigericin.
Human peripheral blood mononuclear cells (PBMCs), consisting of lymphocytes (T, B and NK cells), monocytes and dendritic cells, were freshly isolated from human peripheral blood from healthy donors. Cells were obtained through an IRB approved donor program by iXCells Biotechnologies where all the donors were tested for bacterial and viral infections. Cells were purified from peripheral blood using ficoll gradient centrifugation.
(§2) Cells were then stimulated with 10 uM Nigericin (Sigma Aldrich; InvivoGen) for 1.5 h. Plates were centrifuged at 1,500 rpm for 3 minutes to pellet cells and supernatant was transferred into new plates for subsequent experiments.
(§3) For ELISA assays cells were seeded into 96-well plates. Post study, supernatants were removed and the levels of mature IL-1β, IL-18 and TNFα (Quantikine ELISA, R&D systems) were measured in cell conditioned media by ELISA according to manufacturer's instructions.

[3] = tested on: LPS and nigericin stimulated cells; experiment: cells; format: cell-based; conditions: Homo sapiens, read-out: CTG protective IC50
Procedure: Viability of compound treated cells is measured using CellTiter-Glo® assay (Promega, Madison, Wis.) that measures the ATP content of cells which is proportional to the number of live cells within a well. This is a counter-screen to establish that the reduction of IL-1β levels in LPS and nigericin stimulated and compound treated cells is not due to cytotoxicity, but rather through the inhibition of the inflammasome pathway. Compounds inhibiting NRLP3 inflammasome activation ultimately increase the viability of LPS and nigericin stimulated cells by blocking NLRP3 mediated pyroptosis that would otherwise lead to cell lysis.

Pharmacokinetics in mice = format: in vivo, CD-1 Mice; conditions: for Cmax / clearance / half-life / AUC(0-t) / Vd: mouse, plasma; for AUC(0-t): read-out: AUC 0-24 hr; for Vd: read-out: Vz
Procedure: The intravenous dosing solutions were administered at 1 mg/kg and were made by dissolving the test article into the formulations shown below. The oral dosing suspensions or solutions were administered at 10 mg/kg and were made by dissolving the test article in the formulations shown below. Blood samples were collected into tubes containing either K2EDTA or sodium heparin and kept chilled on ice block or wet ice immediately following collection and during processing. After centrifugation, the resulting plasma samples were stored in a freezer at −80° C. until samples were analyzed. Pharmacokinetic parameters were determined following measurement of compound concentrations in plasma using standard bioanalytical methods at timepoints ranging from 0 to 24 hours.

NLRP3 inflammasome [4] = biological target: T1, NLRP3 inflammasome; experiment: NLRP3 inflammasome activation assay in Kupffer cells (LPS priming, nigericin), IL-1β/IL-18 by ELISA; format: cell-based; conditions: KCs
Text: as §1
Human Kupffer cells (KCs), specialized liver macrophages residing in […], were obtained by gradient isolation from liver specimens harvested post-mortem by Samsara Sciences. Cells were obtained through an IRB approved donor program by Samsara Sciences and all donors tested negative for bacterial and viral infections.
as §2, §3

[5] = LPS and nigericin stimulated cells, CellTiter-Glo
[6] = Male CD-1 Mice, PO, 10 mg/kg, 0.5% MC
[7] = Female CD-1 Mice, PO, 10 mg/kg, 0.5% MC, 0.25% Tween 80

T1 sequence (Q96P20 whole entry): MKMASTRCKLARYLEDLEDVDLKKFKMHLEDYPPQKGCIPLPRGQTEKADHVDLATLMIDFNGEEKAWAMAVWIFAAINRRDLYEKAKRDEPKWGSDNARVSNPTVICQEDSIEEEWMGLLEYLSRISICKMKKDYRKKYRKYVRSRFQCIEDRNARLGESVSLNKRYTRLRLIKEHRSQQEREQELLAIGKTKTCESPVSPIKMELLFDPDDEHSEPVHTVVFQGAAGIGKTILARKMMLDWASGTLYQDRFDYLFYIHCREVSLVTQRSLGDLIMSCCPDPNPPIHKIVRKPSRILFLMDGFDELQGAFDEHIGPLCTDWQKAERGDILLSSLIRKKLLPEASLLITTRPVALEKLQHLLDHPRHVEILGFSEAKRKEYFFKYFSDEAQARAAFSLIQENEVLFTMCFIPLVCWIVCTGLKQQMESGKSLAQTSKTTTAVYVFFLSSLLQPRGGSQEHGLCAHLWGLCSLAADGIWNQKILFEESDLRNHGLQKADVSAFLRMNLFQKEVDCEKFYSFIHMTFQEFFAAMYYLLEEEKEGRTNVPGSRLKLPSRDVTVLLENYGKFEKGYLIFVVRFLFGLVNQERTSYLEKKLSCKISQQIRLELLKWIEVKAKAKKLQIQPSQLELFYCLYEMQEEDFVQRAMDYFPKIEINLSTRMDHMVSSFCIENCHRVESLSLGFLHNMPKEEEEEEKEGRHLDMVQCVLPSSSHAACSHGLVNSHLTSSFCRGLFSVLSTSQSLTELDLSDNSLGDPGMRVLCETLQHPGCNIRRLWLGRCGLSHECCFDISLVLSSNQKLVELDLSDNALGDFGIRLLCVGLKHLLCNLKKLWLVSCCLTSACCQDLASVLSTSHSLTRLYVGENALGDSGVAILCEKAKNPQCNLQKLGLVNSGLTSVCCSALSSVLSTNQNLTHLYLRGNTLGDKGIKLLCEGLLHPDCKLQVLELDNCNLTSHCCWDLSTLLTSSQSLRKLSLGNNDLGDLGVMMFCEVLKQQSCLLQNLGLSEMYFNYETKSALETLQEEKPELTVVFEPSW

O=C(Nc1c2c(cc3c1CCC3)CCC2)NS(=O)(=O)c1cnn2c1OCC(N1CCCC1)C2 (centres unmarked)
Human Microsomal Stability (Eh) [1]: 0.6 | IC50 (NLRP3 inflammasome [2]): < 100 nM | IC50 [3, 5]: < 100 nM

CC1(C)COc2c(S(=O)(=O)NC(=O)Nc3c4c(cc5c3CCC5)CCC4)cnn2C1 [A]
Bioavailability (% F) (Pharmacokinetics in mice; [6]): 64 % F | Cmax (Pharmacokinetics in mice; Male CD-1 Mice, IV, 1 mg/kg): 9200 ng/mL | clearance (Pharmacokinetics in mice; Male CD-1 Mice, IV, 1 mg/kg): 0.667 mL/min/kg | half-life (Pharmacokinetics in mice; Male CD-1 Mice, IV, 1 mg/kg): 2.8 h | AUC(0-t) (Pharmacokinetics in mice; Male CD-1 Mice, IV, 1 mg/kg): 29200 ng·h/mL | Vd (Pharmacokinetics in mice; Male CD-1 Mice, IV, 1 mg/kg): 0.137 L/kg | Cmax (Pharmacokinetics in mice; [6]): 22700 ng/mL | half-life (Pharmacokinetics in mice; [6]): 3.4 h | AUC(0-t) (Pharmacokinetics in mice; [6]): 186000 ng·h/mL

O=C(Nc1c2c(cc3c1CCC3)CCC2)NS(=O)(=O)c1cnn2c1OCC1(COC1)C2 [Compound 5, N-((1,2,3,5,6,7-hexahydro-s-indacen-4-yl)carbamoyl)-5′,7′-dihydrospiro[oxetane-3,6′-pyrazolo[5,1-b][1,3]oxazine]-3′-sulfonamide]
IL-1β production in Kupffer cells (FIG. 2) (NLRP3 inflammasome [4]): inhibition | IL-18 production in Kupffer cells (FIG. 2) (NLRP3 inflammasome [4]): inhibition

CCN[C@H]1COc2c(S(=O)(=O)NC(=O)Nc3c4c(cc5c3CCC5)CCC4)cnn2C1
Human Microsomal Stability (Eh) [1]: 0.2 | IC50 (NLRP3 inflammasome [2]): < 100 nM | IC50 [3, 5]: < 100 nM

O=C(Nc1c(C2CC2)cc(Cl)cc1C1CC1)NS(=O)(=O)c1cnn2c1OCCC2
IC50 (NLRP3 inflammasome [2]): 100 to 1000 nM | IC50 [3, 5]: 100 to 1000 nM

CC(C)c1cc(C#N)cc(C(C)C)c1NC(=O)NS(=O)(=O)c1cnn2c1OCCC2
IC50 (NLRP3 inflammasome [2]): 100 to 1000 nM | IC50 [3, 5]: < 100 nM

CN[C@H]1COc2c(S(=O)(=O)NC(=O)Nc3c4c(c(F)c5c3CCC5)CCC4)cnn2C1
Human Microsomal Stability (Eh) [1]: 0.2 | IC50 (NLRP3 inflammasome [2]): < 100 nM | IC50 [3, 5]: < 100 nM

CN[C@H]1COc2c(S(=O)(=O)NC(=O)Nc3c4c(cc5c3CCC5)CCC4)cnn2C1 [D]
Bioavailability (% F) (Pharmacokinetics in mice; [7]): 69 % F | Cmax (Pharmacokinetics in mice; Female CD-1 Mice, IV, 1 mg/kg): 3310 ng/mL | clearance (Pharmacokinetics in mice; Female CD-1 Mice, IV, 1 mg/kg): 5 mL/min/kg | half-life (Pharmacokinetics in mice; Female CD-1 Mice, IV, 1 mg/kg): 1.6 h | AUC(0-t) (Pharmacokinetics in mice; Female CD-1 Mice, IV, 1 mg/kg): 3400 ng·h/mL | Vd (Pharmacokinetics in mice; Female CD-1 Mice, IV, 1 mg/kg): 0.69 L/kg | Cmax (Pharmacokinetics in mice; [7]): 13700 ng/mL | half-life (Pharmacokinetics in mice; [7]): 1.7 h | AUC(0-t) (Pharmacokinetics in mice; [7]): 23500 ng·h/mL

O=C(Nc1c2c(cc3c1CCC3)CCC2)NS(=O)(=O)c1cnn2c1OCC2
IC50 (NLRP3 inflammasome [2]): 100 to 1000 nM | IC50 [3, 5]: < 100 nM

CC[C@@H]1COc2c(S(=O)(=O)NC(=O)Nc3c4c(cc5c3CCC5)CCC4)cnn2C1
IC50 (NLRP3 inflammasome [2]): 100 to 1000 nM | IC50 [3, 5]: 100 to 1000 nM

CNC1COc2c(S(=O)(=O)NC(=O)Nc3c4c(cc5c3CCC5)CCC4)cnn2C1 (centres unmarked)
Human Microsomal Stability (Eh) [1]: 0.1 | IC50 [3]: < 100 nM

O=C(Nc1cc(C2CC2)cc(C2CC2)c1)NS(=O)(=O)c1cnn2c1OCCC2
IC50 (NLRP3 inflammasome [2]): 100 to 1000 nM | IC50 [3, 5]: < 100 nM

CO[C@H]1COc2c(S(=O)(=O)NC(=O)Nc3c(C(C)C)cc(Cl)cc3C(C)C)cnn2C1
IC50 (NLRP3 inflammasome [2]): 100 to 1000 nM | IC50 [3, 5]: 100 to 1000 nM

O=C(Nc1c2c(cc3c1CCC3)CCC2)NS(=O)(=O)c1cnn2c1OCC1(CC1)C2 [drawing 528]
Human Microsomal Stability (Eh) [1]: 0.6 | IC50 (NLRP3 inflammasome [2]): < 100 nM | IC50 (NLRP3 inflammasome [4]; LPS, nigericin, read-out: KC IL-1β IC50): < 100 nM | IC50 [3, 5]: < 100 nM

CN(C)[C@H]1COc2c(S(=O)(=O)NC(=O)Nc3c4c(cc5c3CCC5)CCC4)cnn2C1 [C]
Bioavailability (% F) (Pharmacokinetics in mice; [6]): 33 % F | Cmax (Pharmacokinetics in mice; Male CD-1 Mice, IV, 1 mg/kg): 5290 ng/mL | clearance (Pharmacokinetics in mice; Male CD-1 Mice, IV, 1 mg/kg): 5.67 mL/min/kg | half-life (Pharmacokinetics in mice; Male CD-1 Mice, IV, 1 mg/kg): 1.3 h | AUC(0-t) (Pharmacokinetics in mice; Male CD-1 Mice, IV, 1 mg/kg): 2990 ng·h/mL | Vd (Pharmacokinetics in mice; Male CD-1 Mice, IV, 1 mg/kg): 0.64 L/kg | Cmax (Pharmacokinetics in mice; [6]): 7530 ng/mL | half-life (Pharmacokinetics in mice; [6]): 1 h | AUC(0-t) (Pharmacokinetics in mice; [6]): 9950 ng·h/mL

From patent publication US11702428B2, “Chemical compounds as inhibitors of interleukin-1 activity” (Genentech, Inc., priority 2017, dated 2023)
